This note sets out measurements from article PMC5443346 (Bioorganic & medicinal chemistry, 2017).

The test system of the experiment is P. Falciparum 3D7. Description: SYBR Green I growth inhibition assay, 3D7 strain. The experiment is classed as cell-based. Particulars: Plasmodium falciparum, 3D7, 72 h, read-out: P. Falciparum 3D7 IC50.

As usually defined, the IC50 is the concentration that gives 50% inhibition.

Regarding `CCN(CC)CCCC(C)Nc1ccnc2cc(Cl)ccc12` (stereo not shown) [Chloroquine, chloroquine], the IC50 is 52 ± 12 nM.
